{"source": "paper PMC10005750", "about": "(Molecules, 2023)", "key": {"[1]": {"test": "Pharmacokinetic interaction study after oral administration of DPZ and TAD, alone or in combination, in rats", "details": "rat; for CL/F (apparent systemic clearance): tadalafil 0.3 mg/kg oral, n = 3, mean ± SD", "description": "The rat plasma was stored at −70 °C. The plasma samples were thawed at room temperature and then centrifuged at 1800× g (4 °C) for 8 min before pipetting. Using a micropipette, 30 µL of the plasma sample was transferred into a polypropylene microtube, and 10 µL of IS working solution was added to each sample. Further, 0.2 mL of acetonitrile was then added and vortexed for 1 min. […] The supernatant was transferred to an analytical vessel, and 2 µL of the sample was injected into the LC-MS/MS system.\nRats were divided into three groups (n = 3): group 1, DPZ (3 mg/kg); group 2, TAD (0.3 mg/kg); and group 3, DPZ (3 mg/kg) combined with TAD (0.3 mg/kg). Animals were fasted overnight and allowed free access to water.\nThe peak plasma concentration, Cmax, and Tmax (the time to reach Cmax) for DPZ and TAD were calculated using individual plasma concentration–time profiles. […] The terminal half-life (T1/2) was calculated as ln 2/λz (λz is the elimination rate constant estimated by using the least-squares linear regression method of the terminal log-linear portion of the plasma concentration–time curve). The apparent clearance (CL/F) was calculated as CL/F = dose/AUC0-∞. The Mann–Whitney U test was used to determine the differences in the mean plasma concentration and PK profiles of DPZ and TAD between the single and combined administration groups. Statistical analysis was performed using SPSS Statistics (version 26.0; IBM SPSS Statistics for Windows, Armonk, NY, USA), and a p-value < 0.05 was considered statistically significant."}, "[2]": {"test": "Plasma sample stability at low and high QC under storage and handling conditions", "description": "Standard stock solutions of DPZ, TAD, and LPZ (IS) were prepared in methanol at a concentration of 100 µg/mL and stored at −20 °C. Working solutions were prepared by diluting the stock solutions with 50% methanol. The concentration of DPZ and TAD ranged from 1 to 200 ng/mL. […] The IS working solution was prepared by diluting the stock solution with 50% methanol to a concentration of 20 ng/mL. All working stock solutions were prepared and stored at −20 °C until use. Calibration standards and QC samples of DPZ and TAD in rat plasma were diluted with the corresponding working solutions and blank rat plasma. Drug-free plasma, that is, control (blank) plasma, stored in a deep freezer, was completely thawed at room temperature before use. Ten percent spiking with working DPZ and TAD stock solutions was performed in blank plasma. The spiked QC samples were stored at −70 °C for stability studies.\nStability analyses of the stock solutions were performed at room temperature for 3 h and under refrigerated conditions (4 °C) for 14 days. The stability of the plasma analytes was tested for low and high QC under pre-specified conditions: room temperature for 5 h, refrigeration (4 °C) for 14 days, autosampler (10 °C) for 20 h, four cycles of freezing-thawing, and finally frozen conditions (−70 °C) for 28 days for long-term stability."}, "[3]": {"details": "male, Sprague-Dawley, plasma, po"}, "[4]": {"details": "male, Sprague-Dawley, plasma, po, 0.3 mg/kg"}}, "data": [{"smiles": "CN1CC(=O)N2[C@H](c3ccc4c(c3)OCO4)c3[nH]c4ccccc4c3C[C@@H]2C1=O", "note": "[Tadalafil, tadalafil]", "values": [{"measurement": "Tmax", "setting": "[1]; [3]", "value": 0.5, "unit": "h"}, {"measurement": "half-life", "setting": "[1]; [3]", "value": "1.96 ± 0.212", "unit": "h"}, {"measurement": "AUC(0-inf)", "setting": "[1]; [4]", "value": "50.4 ± 23.6", "unit": "ng·h/mL"}, {"measurement": "AUC(0-t)", "setting": "[1]; [4]", "value": "47 ± 24.4", "unit": "ng·h/mL"}, {"measurement": "Cmax", "setting": "[1]; [4]", "value": "17.8 ± 6", "unit": "ng/mL"}, {"measurement": "MRT last", "setting": "[1]; [4]", "value": "2.53 ± 0.214", "unit": "h"}, {"measurement": "Tmax", "setting": "[1]; [4]", "value": 0.5, "unit": "h"}, {"measurement": "half-life", "setting": "[1]; [4]", "value": "1.52 ± 0.12", "unit": "h"}, {"measurement": "CL/F (apparent systemic clearance)", "setting": "[1]; alone", "value": "7.355 ± 4.516", "unit": "L/h"}, {"measurement": "CL/F (apparent systemic clearance)", "setting": "[1]; with DPZ 3 mg/kg", "value": "11.819 ± 9.852", "unit": "L/h"}, {"measurement": "Plasma sample stability (Mean ± SD, %)", "setting": "[2]; extracted rat plasma sample, autosampler (10 °C, 20 h), nominal 2 ng/mL", "value": "99.63 ± 6.03", "unit": "%"}, {"measurement": "Plasma sample stability (Mean ± SD, %)", "setting": "[2]; extracted rat plasma sample, autosampler (10 °C, 20 h), nominal 160 ng/mL", "value": "102.18 ± 3.98", "unit": "%"}, {"measurement": "Plasma sample stability (Mean ± SD, %)", "setting": "[2]; rat plasma, freeze-thaw (4 cycles), nominal 2 ng/mL", "value": "95.15 ± 2.69", "unit": "%"}, {"measurement": "Plasma sample stability (Mean ± SD, %)", "setting": "[2]; rat plasma, freeze-thaw (4 cycles), nominal 160 ng/mL", "value": "103.60 ± 1.55", "unit": "%"}, {"measurement": "Plasma sample stability (Mean ± SD, %)", "setting": "[2]; rat plasma, refrigeration (4 °C, 14 days), nominal 2 ng/mL", "value": "93.52 ± 3.03", "unit": "%"}, {"measurement": "Plasma sample stability (Mean ± SD, %)", "setting": "[2]; rat plasma, refrigeration (4 °C, 14 days), nominal 160 ng/mL", "value": "107.44 ± 5.73", "unit": "%"}, {"measurement": "Plasma sample stability (Mean ± SD, %)", "setting": "[2]; rat plasma, room temperature (5 h), nominal 2 ng/mL", "value": "95.75 ± 4.54", "unit": "%"}, {"measurement": "Plasma sample stability (Mean ± SD, %)", "setting": "[2]; rat plasma, room temperature (5 h), nominal 160 ng/mL", "value": "95.18 ± 0.41", "unit": "%"}, {"measurement": "Plasma sample stability (Mean ± SD, %)", "setting": "[2]; rat plasma, −70 °C (28 days), nominal 2 ng/mL", "value": "99.17 ± 3.88", "unit": "%"}, {"measurement": "Plasma sample stability (Mean ± SD, %)", "setting": "[2]; rat plasma, −70 °C (28 days), nominal 160 ng/mL", "value": "104.42 ± 4.78", "unit": "%"}, {"measurement": "stability in rat plasma under all examined conditions", "setting": "[2]; rat, plasma", "value": "stable"}]}]}
